This note sets out measurements from US20070117842A1, “Polymorph of 4-[3-chloro-4-(cyclopropylaminocarbonyl)aminophenoxy]-7-methoxy-6- quinolinecarboxamide and a process for the preparation of the same” (priority 2003, published 2007).

For test [1], the target named is T1, c-Kit kinase (Homo sapiens, UniProt P10721). The test is described as follows: Effect on c-Kit kinase phosphorylation in H-526 tumor transplanted to nude mice (immunoblot). The class given is in vivo, Balb/c nu/nu mice. Conditions: H-526 tumor in nude mice. Also on record: from tissue; host or cells: H-526 tumour xenograft extracted from Balb/c nu/nu mice. As to the method:
0.1 ml of a H-526 cell suspension prepared at a concentration of 5.0×10^7 cells/ml, was transplanted to the subcutaneous parts of the right latus of 6-week female Balb/c nu/nu mice (purchased from Charles River Laboratories, Inc.). The animals were then divided into a vehicle control group (solvent-administered group) and a test substance (4-(3-chloro-4-(cyclopropylaminocarbonyl)aminophenoxy)-7-methoxy-6-quinolinecarboxamide) administered group at the point the tumor volume reached 300-1000 mm^3: the test substance was administered to the latter group. The extracted tumor was placed in a cell lysate buffer (50 mM HEPES (pH 7.4), 150 mM NaCl, 10% glycerol, 1% Triton X-100, 1.5 mm MgCl2, 1 mM EDTA, 100 mM NaF, 1 mM PMSF, 10 μg/ml aprotinin, 50 μg/ml leupeptin, 1 μg/ml peptatin A, 1 mM Na3VO4, 25 mM , βglycerophosphate, and phosphatase inhibitor cocktail 11) and homogenized. After centrifugation, the supernatant was protein quantified, and a 3×SDS sample loading buffer was added to prepare a cell lysate sample. Subsequently, the cell lysate was heat-treated at 94° c. for 10 minutes and cryopreserved at −20° c.
The cell lysate sample which was equivalent to 30 μg of protein was electrophoresed on a 4-20% gradient polyacrylamide gel (Daiichi Pure Chemicals Co., Ltd.). After electrophoresis, the sample was transferred to a PVDF membrane (Amersham Pharmacia Biotech Inc.) for 3 hours. In order to assay phosphorylated c-Kit, c-Kit and β-actin, immunoblot was performed using a phospho-c-kit (Tyr719) antibody (Cell Signaling Technologies, Inc.), an anti c-Kit antibody (Cell Signaling Technologies, Inc.) and an anti β-actin antibody (Sigma) as a primary antibody and an anti-rabbit IgG, HRP-linked antibody (Cell Signaling Technologies, Inc.) as a secondary antibody. After the membrane was washed, it was developed with a Super Signal (Pierce Biotechnology, Inc.).
In general terms: Immunoblotting shows a protein as a band on a membrane.

The subject of test [2] is H-526 tumor. As to the kind of experiment: Effect on growth of H-526 tumor transplanted to nude mice. In kind it is in vivo, Balb/c nu/nu mice. The protocol:
H-526 cells were cultured in a 5% CO2 incubator (37° c.) using an RPMI1640 medium containing 10% FCS. After the culture medium was collected, H-526 cells were washed with PBS twice and were suspended in PBS at 5.0×10^7 cells/ml. This cell suspension (0.1 ml) was transplanted to the subcutaneous parts of the right flank of 6-week female Balb/c nu/nu mice (purchased from Charles River Laboratories, Inc.). After transplantation, administration of a test substance (4-(3-chloro-4-(cyclopropylaminocarbonyl)aminophenoxy)-7-methoxy-6-quinolinecarboxamide) was started at the point the tumor volume reached approximately 150 mm^3, and thus, oral administration was conducted twice daily for a period of 14 days. The test substance was suspended in a 0.5% methylcellulose solution (Wako Pure Chemical Industries Co., Ltd.) so as to give a dose of 0.1 ml/10 g body weight.
The tumor volume was measured with a caliper twice weekly during the administration period. The long and short diameters of the tumor were measured with a caliper and the tumor volume was calculated according to the equation: ½×long diameter×short diameter×short diameter. Here, the experiment was conducted in a vehicle control group of 10 animals (solvent-administered group) as well as in a test substance administered group of 5 animals.

Test [3] concerns small cell lung cancer cell line H-526 expressing c-Kit kinase. As to the kind of experiment: Effect on cell proliferation stimulated by SCF. In kind it is cell-based. Conditions: Homo sapiens, NCI-H526; H-526 cells, SCF stimulation, 7th day, Cell Counting Kit-8; read-out: IC50 (concentration required for 50% inhibition of the cell proliferation). As to the method: After culturing, H-526 cells were washed with PBS three times and were suspended in an RPMI1640 medium containing 0.1% BSA (Sigma Corporation) (hereinafter abbreviated as “BSA-RPMI1640”) at 1.0×10^5 cells/ml. […] After color development, the absorbance of each well was determined using a MTP-32 plate reader (Colona Electric Co., Ltd.) at a measuring wavelength of 450 nm and at a reference wavelength of 660 nm. The absorbance of each well was subtracted by the absorbance of the well without addition of SCF, and then the ratio of the absorbance of the well with addition of the test substance to the ratio of the absorbance of the well without addition of the test substance was determined. This ratio was used to calculate the concentration of the test substance required for 50% inhibition of the cell proliferation (IC50).

Test [4] concerns the target T1, c-Kit kinase. The test is described as follows: Effect on c-Kit kinase phosphorylation by SCF stimulation (immunoblot). Also on record: in the small cell lung cancer cell line H-526 expressing c-Kit kinase; host or cells: H-526 small cell lung cancer cells. In kind it is cell-based. The note with it: H-526 cells, 1 hour with test substance, SCF 5 minutes, phospho-c-kit (Tyr719) immunoblot. The protocol: 4-(3-Chloro-4-(cyclopropylaminocarbonyl)aminophenoxy)-7-methoxy-6-quinolinecarboxamide was tested for its effect on the phosphorylation of the c-Kit kinase molecule by SCF stimulation in the small cell lung cancer cell line H-526 expressing c-Kit kinase.
H-526 cells were cultured in a 5% CO2 incubator (37° c.) using an RPMI1640 medium containing 10% FCS. After culturing, H-526 cells were washed with PBS three times and were suspended in a BSA-RPMI1640 medium at 5.0×10^5 cells/ml. Each 1 ml of this cell suspension was inoculated to the well of a 24-well plate and the suspension was cultured in a 5% CO2 incubator (37° c.) for 6 hours. After 6-hours culturing, 1 ml of BSA-RPMI1640 containing a diluted test substance (4-(3-Chloro-4-(cyclopropylaminocarbonyl)aminophenoxy)-7-methoxy-6-quinolinecarboxamide) was added to each well and culturing was carried out in a 5% CO2 incubator (37° c.) for 1 hour. Additional culturing was then carried out in a 5% CO2 incubator (37° c.) for 5 minutes after the addition of 10 μl of SCF (10 μg/ml, R&D Corporation). After 5-minutes culturing, the cells were washed with PBS and 100 μl of SDS sample loading buffer was added to the cells to prepare a cell lysate sample. After the sample was heat-treated at 94° c. for 10 minutes, it was cryopreserved at −20° c. […]

T1 sequence (P10721 26-976): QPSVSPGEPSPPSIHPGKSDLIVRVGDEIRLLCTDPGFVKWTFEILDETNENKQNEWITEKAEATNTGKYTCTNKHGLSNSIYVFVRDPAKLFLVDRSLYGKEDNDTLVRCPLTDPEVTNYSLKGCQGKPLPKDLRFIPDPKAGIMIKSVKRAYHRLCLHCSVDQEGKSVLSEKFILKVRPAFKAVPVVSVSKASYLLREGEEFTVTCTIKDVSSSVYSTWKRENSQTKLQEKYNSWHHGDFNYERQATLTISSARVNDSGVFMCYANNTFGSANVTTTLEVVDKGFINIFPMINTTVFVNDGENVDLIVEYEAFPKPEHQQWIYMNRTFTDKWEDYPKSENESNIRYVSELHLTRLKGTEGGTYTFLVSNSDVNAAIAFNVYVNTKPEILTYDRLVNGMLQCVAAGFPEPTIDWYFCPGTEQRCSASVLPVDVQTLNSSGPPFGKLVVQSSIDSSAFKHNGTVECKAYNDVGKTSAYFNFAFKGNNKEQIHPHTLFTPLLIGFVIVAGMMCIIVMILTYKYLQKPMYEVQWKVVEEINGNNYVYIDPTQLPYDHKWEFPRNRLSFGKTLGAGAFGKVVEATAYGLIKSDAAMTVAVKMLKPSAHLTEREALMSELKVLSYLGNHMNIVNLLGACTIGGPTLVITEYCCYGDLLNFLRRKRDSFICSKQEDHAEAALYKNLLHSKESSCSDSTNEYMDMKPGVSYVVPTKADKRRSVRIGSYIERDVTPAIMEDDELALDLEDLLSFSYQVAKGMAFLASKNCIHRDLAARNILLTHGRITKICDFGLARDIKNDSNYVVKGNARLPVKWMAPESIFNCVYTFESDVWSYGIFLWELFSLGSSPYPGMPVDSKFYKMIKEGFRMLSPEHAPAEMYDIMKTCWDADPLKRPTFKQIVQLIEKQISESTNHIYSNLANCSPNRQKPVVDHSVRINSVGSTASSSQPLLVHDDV

Regarding `Cc1ccc(NC(=O)c2ccc(CN3CCN(C)CC3)cc2)cc1Nc1nccc(-c2cccnc2)n1` [STI571, reference compound], the “phosphorylated c-Kit in tumor tissue” value in test [1] (160 mg/kg) is on record as “partially inhibited phosphorylation”. Further, the anti-tumor effect entry in test [2] (H-526 tumor in nude mice, 160 mg/kg) is given as “showed little anti-tumor effect”.
As to `COc1cc2nccc(Oc3ccc(NC(=O)NC4CC4)c(Cl)c3)c2cc1C(N)=O` [4-(3-chloro-4-(cyclopropylaminocarbonyl)aminophenoxy)-7-methoxy-6-quinolinecarboxamide], in test [1] (30 or 100 mg/kg), the “c-Kit and β-actin in tumor tissue” value is “remained unchanged”; the “phosphorylated c-Kit in tumor tissue” value is reported as “completely inhibited phosphorylation”. In addition, the “growth of the nude mouse transplanted H-526 tumor (tumor volume)” value in test [2] (oral, twice daily for 14 days) is listed as “suppressed the growth of the nude mouse transplanted H-526 tumor in a dose-dependent manner”. Also, in test [3], the IC50 turned out to be 9.46 nM. For the same molecule, the “c-Kit kinase phosphorylation in the presence of SCF” value in test [4] is given as “suppressed the c-Kit kinase phosphorylation that would take place in the presence of SCF in a concentration-dependent manner”.
